From patent US7851632B2, “Biphenyl compounds useful as muscarinic receptor antagonists” (Theravance, Inc., priority 2004, dated 2010)

System: ACh-induced bronchoconstriction
Assay: Duration of bronchoprotection in guinea pig model of acetylcholine-induced bronchoconstriction
Format: in vivo
Details: inhalation, 1.5 hours post-dose
Procedure: Determination of Duration of Bronchoprotection in Guinea Pig Model of Acetylcholine-Induced Bronchoconstriction
Groups of six male guinea pigs (Duncan-Hartley (HsdPoc:DH) Harlan, Madison, Wis.) weighing between 250 and 350 g were individually identified by cage cards. Throughout the study animals were allowed access to food and water ad libitum.
Test compounds were administered via inhalation over 10 minutes in a whole-body exposure dosing chamber (R&S Molds, San Carlos, Calif.). The dosing chambers were arranged so that an aerosol was simultaneously delivered to 6 individual chambers from a central manifold. Guinea pigs were exposed to an aerosol of a test compound or vehicle (WFI). […] This was measured gravimetrically by comparing pre- and post-nebulization weights of the filled nebulizer.
The bronchoprotective effects of test compounds administered via inhalation were evaluated using whole body plethysmography at 1.5, 24, 48 and 72 hours post-dose.
Forty-five minutes prior to the start of the pulmonary evaluation, each guinea pig was anesthetized with an intramuscular injection of ketamine (43.75 mg/kg), xylazine (3.50 mg/kg) and acepromazine (1.05 mg/kg). […] The depth of anesthesia was monitored and adjusted if the animal responded to pinching of its paw or if the respiration rate was greater than 100 breaths/minute. […]

In the case of `CN(CCN1CCC(OC(=O)Nc2ccccc2-c2ccccc2)CC1)C(=O)c1ccc(CNCc2ccc(O)cc2)cc1` [Example 1, Biphenyl-2-ylcarbamic Acid 1-[2-({4-[(4-Hydroxybenzylamino)methyl]benzoyl}methylamino)ethyl]piperidin-4-yl Ester], the “PD2(50) for ACh-induced bronchoconstriction” value is reported as “less than 200 μg/mL”.
